Reference: the kinase profiling compilation of Christmann-Franck et al. (2016)

Tests used:
Experiment in all cases: KINOMEscan competition binding
Conditions in all cases: compound 10.0 µM
PLK3 (human) = PLK3 (human) (UniProt Q9H4B4)
[1] = tested on: MET (human), P08581 [Y1235D]
CDK8 (human) = CDK8 (human) (UniProt P49336)
PIM1 (human) = PIM1 (human) (UniProt P11309)
CDC42BPB (human) = CDC42BPB (human) (UniProt Q9Y5S2)
PKN3 (M.tuberculosis) = PKN3 (M.tuberculosis) (UniProt Q6P5Z2)
EPHA2 (human) = EPHA2 (human) (UniProt P29317)
CPK1 (P.falciparum) = tested on: CPK1 (P.falciparum)
[2] = tested on: FLT3 (human), P36888 [ITD]
SRPK1 (human) = SRPK1 (human) (UniProt Q96SB4)
MAP3K1 (human) = MAP3K1 (human) (UniProt Q13233)
CSNK1G2 (human) = CSNK1G2 (human) (UniProt P78368)
RIOK3 (human) = RIOK3 (human) (UniProt O14730)
RPS6KA4 KD1 (human) = RPS6KA4 KD1 (human) (UniProt O75676)
PTK2B (human) = PTK2B (human) (UniProt Q14289)
ADCK3 (human) = ADCK3 (human) (UniProt Q8NI60)
MAP2K2 (human) = MAP2K2 (human) (UniProt P36507)
NEK11 (human) = NEK11 (human) (UniProt Q8NG66)
PRKCQ (human) = PRKCQ (human) (UniProt Q04759)
EPHB2 (human) = EPHB2 (human) (UniProt P29323)
DDR1 (human) = DDR1 (human) (UniProt Q08345)
[3] = tested on: PIK3CA (human), P42336 [C420R]
CDK17 (human) = CDK17 (human) (UniProt Q00537)
NTRK2 (human) = NTRK2 (human) (UniProt Q16620)
EGFR (human) = EGFR (human) (UniProt P00533)
[4] = tested on: EGFR (human), P00533 [747-751 del / S ins]
PAK7 (human) = PAK7 (human) (UniProt Q9P286)
STK32A (human) = STK32A (human) (UniProt Q8WU08)
DDR2 (human) = DDR2 (human) (UniProt Q16832)
ERBB3 (human) = ERBB3 (human) (UniProt P21860)
SRPK2 (human) = SRPK2 (human) (UniProt P78362)
MAP3K9 (human) = MAP3K9 (human) (UniProt P80192)
[5] = tested on: PIK3CA (human), P42336 [Q546K]
CDK13 (human) = CDK13 (human) (UniProt Q14004)
BMPR1A (human) = BMPR1A (human) (UniProt P36894)
ALK (human) = ALK (human) (UniProt Q9UM73)
CASK (human) = CASK (human) (UniProt O14936)
[6] = target: TYK2 JH2 pseudokinase (human) (UniProt P29597)
RPS6KB1 (human) = RPS6KB1 (human) (UniProt P23443)
FER (human) = FER (human) (UniProt P16591)
[7] = tested on: KIT (human), P10721 [D816V]

Chain of CDK13 (human) (Q14004 whole entry, looked up): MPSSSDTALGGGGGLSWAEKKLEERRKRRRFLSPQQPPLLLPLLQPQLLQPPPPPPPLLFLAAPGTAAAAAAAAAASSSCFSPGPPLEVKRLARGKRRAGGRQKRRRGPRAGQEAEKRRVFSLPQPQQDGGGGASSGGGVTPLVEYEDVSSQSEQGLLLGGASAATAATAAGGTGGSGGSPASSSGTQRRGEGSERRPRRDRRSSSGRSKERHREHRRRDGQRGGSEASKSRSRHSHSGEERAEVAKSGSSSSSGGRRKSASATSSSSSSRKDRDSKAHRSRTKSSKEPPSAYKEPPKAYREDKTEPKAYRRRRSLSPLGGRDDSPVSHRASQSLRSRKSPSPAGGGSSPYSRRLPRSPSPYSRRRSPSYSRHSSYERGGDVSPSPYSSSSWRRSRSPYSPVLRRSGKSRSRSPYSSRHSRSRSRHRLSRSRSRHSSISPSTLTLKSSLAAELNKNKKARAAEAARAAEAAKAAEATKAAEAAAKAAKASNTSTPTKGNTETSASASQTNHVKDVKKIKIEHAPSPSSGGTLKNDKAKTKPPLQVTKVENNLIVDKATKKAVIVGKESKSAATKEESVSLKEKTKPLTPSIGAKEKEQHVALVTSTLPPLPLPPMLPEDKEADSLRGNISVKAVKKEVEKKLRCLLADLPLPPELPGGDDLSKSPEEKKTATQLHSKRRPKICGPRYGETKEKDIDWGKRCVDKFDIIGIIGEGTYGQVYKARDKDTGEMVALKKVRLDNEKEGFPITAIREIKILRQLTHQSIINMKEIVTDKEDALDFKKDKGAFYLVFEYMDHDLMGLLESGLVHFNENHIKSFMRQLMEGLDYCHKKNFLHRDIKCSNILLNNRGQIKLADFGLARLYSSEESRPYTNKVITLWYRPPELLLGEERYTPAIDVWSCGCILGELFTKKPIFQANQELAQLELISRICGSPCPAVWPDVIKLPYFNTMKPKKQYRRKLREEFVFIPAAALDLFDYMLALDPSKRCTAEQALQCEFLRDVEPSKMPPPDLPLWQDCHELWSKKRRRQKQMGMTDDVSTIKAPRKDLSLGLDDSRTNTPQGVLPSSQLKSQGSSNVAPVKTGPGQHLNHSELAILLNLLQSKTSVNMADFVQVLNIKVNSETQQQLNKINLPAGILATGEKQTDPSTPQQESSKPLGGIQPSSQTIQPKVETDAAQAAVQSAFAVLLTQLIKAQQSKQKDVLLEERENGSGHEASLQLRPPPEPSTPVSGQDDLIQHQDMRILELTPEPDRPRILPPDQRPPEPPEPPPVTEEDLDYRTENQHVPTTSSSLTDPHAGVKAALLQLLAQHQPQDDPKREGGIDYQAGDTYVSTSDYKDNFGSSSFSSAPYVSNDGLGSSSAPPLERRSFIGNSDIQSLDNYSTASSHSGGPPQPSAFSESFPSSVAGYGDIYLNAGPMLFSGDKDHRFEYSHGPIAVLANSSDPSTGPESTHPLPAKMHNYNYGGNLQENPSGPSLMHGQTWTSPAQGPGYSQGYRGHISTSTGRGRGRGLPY
Chain of PTK2B (human) (Q14289 whole entry, looked up): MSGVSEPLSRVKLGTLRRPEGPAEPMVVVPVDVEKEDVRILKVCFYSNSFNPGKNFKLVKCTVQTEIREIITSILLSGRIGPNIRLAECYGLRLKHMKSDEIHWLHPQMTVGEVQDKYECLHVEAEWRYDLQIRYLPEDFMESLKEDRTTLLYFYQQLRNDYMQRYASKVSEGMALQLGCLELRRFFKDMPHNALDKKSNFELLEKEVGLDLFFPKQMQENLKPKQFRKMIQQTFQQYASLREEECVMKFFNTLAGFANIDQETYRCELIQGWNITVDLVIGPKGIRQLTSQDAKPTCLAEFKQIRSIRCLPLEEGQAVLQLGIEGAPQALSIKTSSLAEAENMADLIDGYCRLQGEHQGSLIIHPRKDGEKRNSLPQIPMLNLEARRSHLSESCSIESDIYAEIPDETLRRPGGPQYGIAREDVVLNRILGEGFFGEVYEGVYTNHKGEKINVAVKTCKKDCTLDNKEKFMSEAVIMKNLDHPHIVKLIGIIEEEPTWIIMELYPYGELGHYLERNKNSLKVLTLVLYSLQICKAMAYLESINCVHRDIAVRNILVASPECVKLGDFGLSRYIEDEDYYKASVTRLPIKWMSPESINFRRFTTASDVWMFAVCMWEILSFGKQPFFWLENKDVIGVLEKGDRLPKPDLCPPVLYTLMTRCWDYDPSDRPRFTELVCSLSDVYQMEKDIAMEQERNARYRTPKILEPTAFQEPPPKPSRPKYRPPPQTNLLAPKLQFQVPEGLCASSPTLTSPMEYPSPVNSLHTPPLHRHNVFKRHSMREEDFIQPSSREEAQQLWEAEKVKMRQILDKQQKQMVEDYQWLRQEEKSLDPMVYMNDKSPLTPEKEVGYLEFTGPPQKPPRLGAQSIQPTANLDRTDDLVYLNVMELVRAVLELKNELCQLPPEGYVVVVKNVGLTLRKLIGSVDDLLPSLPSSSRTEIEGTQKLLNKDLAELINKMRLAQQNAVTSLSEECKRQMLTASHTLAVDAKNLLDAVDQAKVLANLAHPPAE
Chain of RPS6KA4 KD1 (human) (O75676 whole entry, looked up): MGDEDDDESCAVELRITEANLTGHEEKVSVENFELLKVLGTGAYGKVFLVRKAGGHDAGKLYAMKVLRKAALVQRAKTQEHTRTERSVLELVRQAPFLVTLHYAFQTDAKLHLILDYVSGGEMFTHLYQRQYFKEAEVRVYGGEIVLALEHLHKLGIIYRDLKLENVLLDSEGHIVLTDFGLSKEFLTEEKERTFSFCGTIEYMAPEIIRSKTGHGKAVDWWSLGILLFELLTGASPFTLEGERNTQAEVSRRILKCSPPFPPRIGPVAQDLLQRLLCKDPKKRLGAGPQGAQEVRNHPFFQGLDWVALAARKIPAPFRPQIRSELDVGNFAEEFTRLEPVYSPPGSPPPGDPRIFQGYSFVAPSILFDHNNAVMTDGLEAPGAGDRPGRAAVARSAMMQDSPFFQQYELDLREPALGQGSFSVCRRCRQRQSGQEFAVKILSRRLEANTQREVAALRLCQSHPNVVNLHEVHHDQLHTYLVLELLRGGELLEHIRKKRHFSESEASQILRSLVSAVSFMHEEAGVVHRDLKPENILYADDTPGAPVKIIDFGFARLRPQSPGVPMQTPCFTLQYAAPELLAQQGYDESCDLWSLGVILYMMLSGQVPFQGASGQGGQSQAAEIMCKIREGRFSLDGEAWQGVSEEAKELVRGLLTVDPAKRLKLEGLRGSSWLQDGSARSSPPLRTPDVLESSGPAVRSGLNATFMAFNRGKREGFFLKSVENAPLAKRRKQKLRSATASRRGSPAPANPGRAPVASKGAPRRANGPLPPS
Chain of CDC42BPB (human) (Q9Y5S2 whole entry, looked up): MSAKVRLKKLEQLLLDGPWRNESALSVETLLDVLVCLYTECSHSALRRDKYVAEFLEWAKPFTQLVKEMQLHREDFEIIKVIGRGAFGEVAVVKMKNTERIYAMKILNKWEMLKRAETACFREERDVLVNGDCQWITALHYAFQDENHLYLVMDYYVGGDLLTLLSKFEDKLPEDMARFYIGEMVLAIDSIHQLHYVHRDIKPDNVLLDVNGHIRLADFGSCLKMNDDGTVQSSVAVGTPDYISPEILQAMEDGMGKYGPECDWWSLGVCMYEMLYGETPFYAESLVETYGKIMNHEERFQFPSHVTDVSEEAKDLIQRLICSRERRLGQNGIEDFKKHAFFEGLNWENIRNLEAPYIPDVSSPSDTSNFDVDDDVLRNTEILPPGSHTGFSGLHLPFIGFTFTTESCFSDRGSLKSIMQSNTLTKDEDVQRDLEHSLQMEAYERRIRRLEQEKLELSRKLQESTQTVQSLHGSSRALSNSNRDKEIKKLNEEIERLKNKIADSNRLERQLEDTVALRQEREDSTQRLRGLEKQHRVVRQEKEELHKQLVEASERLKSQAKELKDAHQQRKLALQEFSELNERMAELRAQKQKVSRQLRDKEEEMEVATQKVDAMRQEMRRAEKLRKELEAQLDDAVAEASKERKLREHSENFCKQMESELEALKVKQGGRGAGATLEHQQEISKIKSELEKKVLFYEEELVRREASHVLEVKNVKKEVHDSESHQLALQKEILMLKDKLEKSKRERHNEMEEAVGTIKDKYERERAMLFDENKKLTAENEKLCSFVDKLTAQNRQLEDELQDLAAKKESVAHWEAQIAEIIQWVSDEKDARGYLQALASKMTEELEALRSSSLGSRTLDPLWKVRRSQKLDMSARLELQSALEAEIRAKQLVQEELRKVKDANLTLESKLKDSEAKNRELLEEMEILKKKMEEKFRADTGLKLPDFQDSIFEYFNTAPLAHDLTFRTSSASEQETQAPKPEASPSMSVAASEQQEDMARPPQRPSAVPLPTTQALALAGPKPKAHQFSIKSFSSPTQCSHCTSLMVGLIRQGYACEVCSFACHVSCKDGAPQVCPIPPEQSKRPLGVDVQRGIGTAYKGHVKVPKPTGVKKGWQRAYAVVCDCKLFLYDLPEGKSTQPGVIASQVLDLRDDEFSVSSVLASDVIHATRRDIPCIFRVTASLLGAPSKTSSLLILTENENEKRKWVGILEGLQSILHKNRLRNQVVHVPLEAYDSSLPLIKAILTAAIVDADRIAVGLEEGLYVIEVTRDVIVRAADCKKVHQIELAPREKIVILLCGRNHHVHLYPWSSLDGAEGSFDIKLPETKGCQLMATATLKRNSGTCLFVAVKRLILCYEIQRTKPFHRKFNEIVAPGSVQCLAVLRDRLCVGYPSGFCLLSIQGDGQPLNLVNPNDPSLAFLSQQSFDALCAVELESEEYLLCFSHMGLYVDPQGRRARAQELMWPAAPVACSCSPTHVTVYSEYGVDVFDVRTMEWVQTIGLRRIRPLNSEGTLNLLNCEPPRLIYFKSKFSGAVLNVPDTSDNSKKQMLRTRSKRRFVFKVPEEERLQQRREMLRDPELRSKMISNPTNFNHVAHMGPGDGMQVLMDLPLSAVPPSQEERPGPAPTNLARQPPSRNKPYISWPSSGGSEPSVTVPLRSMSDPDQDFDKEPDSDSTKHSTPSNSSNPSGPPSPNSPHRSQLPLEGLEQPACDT

SMILES | kinase still bound, per cent of control (PLK3 (human)) [%] | per cent of control (CDK8 (human)) [%] | kinase still bound, per cent of control (PIM1 (human)) [%] | kinase still bound, per cent of control (CDC42BPB (human)) [%] | kinase still bound, per cent of control (PKN3 (M.tuberculosis)) [%] | kinase still bound, per cent of control (EPHA2 (human)) [%] | kinase still bound, per cent of control (SRPK1 (human)) [%] | kinase still bound, per cent of control (MAP3K1 (human)) [%] | kinase still bound, per cent of control (RIOK3 (human)) [%] | kinase still bound, per cent of control (RPS6KA4 KD1 (human)) [%] | kinase still bound, per cent of control (PTK2B (human)) [%] | kinase still bound, per cent of control (ADCK3 (human)) [%] | kinase still bound, per cent of control (MAP2K2 (human)) [%] | kinase still bound, per cent of control (NEK11 (human)) [%] | kinase still bound, per cent of control (PRKCQ (human)) [%] | kinase still bound, per cent of control (EPHB2 (human)) [%] | kinase still bound, per cent of control (DDR1 (human)) [%] | per cent of control (CDK17 (human)) [%] | kinase still bound, per cent of control (PAK7 (human)) [%] | kinase still bound, per cent of control (STK32A (human)) [%] | other results
CCC(=O)N1CCN(c2ccc(-n3c(=O)ccc4cnc5ccc(-c6cnc7ccccc7c6)cc5c43)cc2C(F)(F)F)CC1 | 87 | 4.6 | 80 | 3.4 | 64 | 59 | 100 | 92 | 90 | 100 | 100 | 17 | 100 | 65 | 91 | 100 | 100 | 97 | 87 | 100 | kinase still bound, per cent of control [1]: 100%; kinase still bound, per cent of control (CPK1 (P.falciparum)): 36%; kinase still bound, per cent of control [2]: 29%; kinase still bound, per cent of control (CSNK1G2 (human)): 100%; kinase still bound, per cent of control [3]: 0.7%; kinase still bound, per cent of control (NTRK2 (human)): 81%; kinase still bound, per cent of control (EGFR (human)): 85%; kinase still bound, per cent of control [4]: 80%; kinase still bound, per cent of control (DDR2 (human)): 100%; kinase still bound, per cent of control (ERBB3 (human)): 44%; kinase still bound, per cent of control (SRPK2 (human)): 100%; kinase still bound, per cent of control (MAP3K9 (human)): 84%; kinase still bound, per cent of control [5]: 6.8%; per cent of control (CDK13 (human)): 80%; kinase still bound, per cent of control (BMPR1A (human)): 45%; kinase still bound, per cent of control (ALK (human)): 80%; kinase still bound, per cent of control (CASK (human)): 100%; kinase still bound, per cent of control [6]: 55%
COC(=O)Nc1ccc(-c2nc(N3CCOCC3)c3cnn(C4CCN(C(=O)OC)CC4)c3n2)cc1 | 93 | 100 | 100 | 96 | 73 | 100 | 100 | 94 | 100 | 94 | 92 | 80 | 100 | 85 | 99 | 100 | 100 | 100 | 80 | 100 | kinase still bound, per cent of control (CPK1 (P.falciparum)): 100%; kinase still bound, per cent of control [2]: 100%; kinase still bound, per cent of control (RPS6KB1 (human)): 86%; kinase still bound, per cent of control (CSNK1G2 (human)): 98%; kinase still bound, per cent of control (FER (human)): 100%; kinase still bound, per cent of control [7]: 100%; kinase still bound, per cent of control [3]: 3%; kinase still bound, per cent of control (NTRK2 (human)): 100%; kinase still bound, per cent of control (EGFR (human)): 100%; kinase still bound, per cent of control [4]: 100%; kinase still bound, per cent of control (DDR2 (human)): 100%; kinase still bound, per cent of control (ERBB3 (human)): 100%; kinase still bound, per cent of control (SRPK2 (human)): 100%; kinase still bound, per cent of control (MAP3K9 (human)): 100%; kinase still bound, per cent of control [5]: 6.8%; per cent of control (CDK13 (human)): 100%; kinase still bound, per cent of control (BMPR1A (human)): 100%; kinase still bound, per cent of control (ALK (human)): 100%; kinase still bound, per cent of control (CASK (human)): 100%; kinase still bound, per cent of control [6]: 78%
CC(C)n1nc(-c2cc3cc(O)ccc3[nH]2)c2c(N)ncnc21 | 33 | 43 | 26 | 71 | 24 | 9.4 | 100 | 45 | 83 | 100 | 100 | 57 | 0.4 | 74 | 58 | 32 | 6.4 | 100 | 8.6 | 1.8 | kinase still bound, per cent of control [1]: 88%; kinase still bound, per cent of control (RPS6KB1 (human)): 57%; kinase still bound, per cent of control (FER (human)): 64%; kinase still bound, per cent of control [7]: 2.5%; kinase still bound, per cent of control (DDR2 (human)): 11%; kinase still bound, per cent of control (ERBB3 (human)): 0%; kinase still bound, per cent of control (SRPK2 (human)): 100%; kinase still bound, per cent of control (MAP3K9 (human)): 32%; per cent of control (CDK13 (human)): 100%; kinase still bound, per cent of control (BMPR1A (human)): 2.8%; kinase still bound, per cent of control (ALK (human)): 41%; kinase still bound, per cent of control [6]: 2.6%
